Measured values reported in patent US20080124270A1, “Compounds Useful as Metal Chelators” (BRACCO IMAGING S.P.A., priority 2003, published 2008).

Assays:
[1] = relaxivity r1 of the gadolinium complex in Sucrose 80; assay type: physicochemical; settings: relaxivity of the compound when complexed with gadolinium
From the text: (§1) One measure of a complex of a paramagnetic metal and a chelation compound is its signal enhancing effect when used as a contrast agent for MRI. The effectiveness of a paramagnetic complex (e.g., a complex including Gd (III)) in decreasing the relaxation time (T1) of the vicinal water protons is an intrinsic property called relaxivity, r1, which is given by the following equation: […]

[2] = relaxivity r1 of the gadolinium complex; assay type: physicochemical; settings: for r1: relaxivity of the compound when complexed with gadolinium
From the text: as §1

| SMILES | r1 in Sucrose 80 [1] | r1 [2] | relaxivity compared to DOTA or DO3A ([2]; when it complexes gadolinium, result in words) |
| --- | --- | --- | --- |
| CC(N1CCN(CC(=O)O)CCN(CC(=O)O)CCN(CC(=O)O)CC1)P(=O)(O)O (stereo not shown) [EPDO3A (Na), 10-(1-phosphonoethyl)-1,4,7,10-tetrazacycododecane-1,4,7-triacetic acid] | 64 mM⁻¹ s⁻¹ | 4.1 mM⁻¹ s⁻¹ |  |
| O=C(O)CN1CCN(CC(=O)O)CCN(CC(=O)O)CCN(CC(=O)O)CC1 [DOTA, 1,4,7,10-tetraazacyclododecane-1,4,7,10-tetraacetic acid, reference compound] | 35 mM⁻¹ s⁻¹ | 3.5 mM⁻¹ s⁻¹ |  |
| O=C(O)CN1CCN(CC(=O)O)CCN(CP(=O)(O)O)CCN(CC(=O)O)CC1 [MPDO3A (Na), 10-Phosphonomethyl-1,4,7,10-tetraazacyclododecane-1,4,7-triacetic acid] | 65 mM⁻¹ s⁻¹ | 4.1 mM⁻¹ s⁻¹ | surprisingly high relaxivity |
